Results published in US12570675B2, “Boronic acid compounds” (LG CHEM, LTD., priority 2020, dated 2026).

Key:
[1] = target: Proteasome chymotrypsin-like activity (S26 protein from RPMI8226 cells) (Homo sapiens, UniProt P28074); type: biochemical; conditions: S26 protein from RPMI8226 cell extract 2 ug/well, substrate 20 uM, 37° C., 90 minutes; read-out: Proteasome chymotrypsin-like activity inhibition IC50
Procedure, shortened: (§1)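 S26 proteasome fraction from homogenized RPMI8226 myeloma cells in 20 mM Tris-HCl pH 8.0 (2 ug extract/well) incubated 90 min at 37 °C with compound serially diluted from 10 uM (0.5% DMSO).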

[2] = target: Proteasome caspase-like activity (S26 protein from RPMI8226 cells) (Homo sapiens (Human), UniProt P28072); experiment: Proteasome caspase-like activity inhibition (Z-Leu-Leu-Glu-AMC fluorogenic substrate, RPMI8226 cell extract); type: biochemical; conditions: S26 protein from RPMI8226 cell extract 2 ug/well, substrate 20 uM, 37° C., 90 minutes
Procedure, shortened: as §1

Proteasome chymotrypsin-like activity (S26 protein from RPMI8226 cells), sequence (P28074 60-263 limits assumed): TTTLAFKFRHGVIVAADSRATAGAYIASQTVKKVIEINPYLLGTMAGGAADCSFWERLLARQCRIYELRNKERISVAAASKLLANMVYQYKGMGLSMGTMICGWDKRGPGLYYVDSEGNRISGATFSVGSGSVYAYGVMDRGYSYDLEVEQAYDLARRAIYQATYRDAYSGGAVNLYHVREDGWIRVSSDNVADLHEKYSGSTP
Proteasome caspase-like activity (S26 protein from RPMI8226 cells), sequence (P28072 whole entry): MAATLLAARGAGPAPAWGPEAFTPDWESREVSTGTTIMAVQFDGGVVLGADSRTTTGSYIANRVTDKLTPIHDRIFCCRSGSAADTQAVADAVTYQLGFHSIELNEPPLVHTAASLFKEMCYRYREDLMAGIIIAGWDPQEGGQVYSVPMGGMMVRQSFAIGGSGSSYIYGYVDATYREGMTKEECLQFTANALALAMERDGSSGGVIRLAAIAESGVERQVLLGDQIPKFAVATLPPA

| SMILES | IC50 [1] | IC50 [2] |
| --- | --- | --- |
| CC(C)C[C@H](NC(=O)C1(Cc2ccccc2)CC(CNC(=O)c2ccnn2C2CCCC2)=NO1)B(O)O (stereo partly drawn) [Example 189, ((1R)-1-(5-benzyl-3-((1-cyclopentyl-1H-pyrazol-5-carboxamido)methyl)-4,5-dihydroisoxazol-5-carboxamido)-3-methylbutyl)boronic acid] | < 0.01 µM | > 1 µM |
| Cc1cc(C(=O)NCC2=NOC(Cc3ccccc3)(C(=O)N[C@@H](CC(C)C)B(O)O)C2)n(C(C)C)n1 (stereo partly drawn) [Example 190, ((1R)-1-(5-benzyl-3-((1-isopropyl-3-methyl-1H-pyrazol-5-carboxamido)methyl)-4,5-dihydroisoxazol-5-carboxamido)-3-methylbutyl)boronic acid] | < 0.01 µM | > 2.5 µM |
| Cc1cc(C(=O)NCC2=NOC(Cc3ccccc3)(C(=O)N[C@@H](CC(C)C)B(O)O)C2)n(C2CCCC2)n1 (stereo partly drawn) [Example 196, ((1R)-1-(5-benzyl-3-((1-cyclopentyl-3-methyl-1H-pyrazol-5-carboxamido)methyl)-4,5-dihydroisoxazol-5-carboxamido)-3-methylbutyl)boronic acid] | < 0.01 µM | > 1 µM |
| CC(C)C[C@H](NC(=O)C1(Cc2ccccc2)CC(CNC(=O)c2n[nH]c3ccccc23)=NO1)B(O)O (stereo partly drawn) [Example 200, ((1R)-1-(3-((1H-indazol-3-carboxamido)methyl)-5-benzyl-4,5-dihydroisoxazol-5-carboxamido)-3-methylbutyl)boronic acid] | < 0.01 µM | > 0.1 µM |
| CC(C)C[C@H](NC(=O)C1(Cc2ccccc2)CC(CNC(=O)c2nn(C)c3ccccc23)=NO1)B(O)O (stereo partly drawn) [Example 201, ((1R)-1-(5-benzyl-3-((1-methyl-1H-indazol-3-carboxamido)methyl)-4,5-dihydroisoxazol-5-carboxamido)-3-methylbutyl)boronic acid] | < 0.01 µM | > 0.25 µM |
| CC(C)C[C@H](NC(=O)C1(Cc2ccccc2)CC(CNC(=O)c2nn(C(C)C)c3ccccc23)=NO1)B(O)O (stereo partly drawn) [Example 202, ((1R)-1-(5-benzyl-3-((1-isopropyl-1H-indazol-3-carboxamido)methyl)-4,5-dihydroisoxazol-5-carboxamido)-3-methylbutyl)boronic acid] | < 0.01 µM | > 0.5 µM |
| CC(C)C[C@H](NC(=O)C1(Cc2ccccc2)CC(CNC(=O)c2cccc3c2cnn3C)=NO1)B(O)O (stereo partly drawn) [Example 204, ((1R)-1-(5-benzyl-3-((1-methyl-1H-indazol-4-carboxamido)methyl)-4,5-dihydroisoxazol-5-carboxamido)-3-methylbutyl)boronic acid] | < 0.01 µM | > 0.5 µM |
| CC(C)C[C@H](NC(=O)C1(Cc2ccccc2)CC(CNC(=O)c2cccc3c2cnn3C(C)C)=NO1)B(O)O (stereo partly drawn) [Example 205, ((1R)-1-(5-benzyl-3-((1-isopropyl-1H-indazol-4-carboxamido)methyl)-4,5-dihydroisoxazol-5-carboxamido)-3-methylbutyl)boronic acid] | < 0.01 µM | > 0.5 µM |
| CC(C)C[C@H](NC(=O)C1(Cc2ccccc2)CC(CNC(=O)c2cc(-c3ccccc3)nn2C(C)C)=NO1)B(O)O (stereo partly drawn) [Example 207, ((1R)-1-(5-benzyl-3-((1-isopropyl-3-phenyl-1H-pyrazol-5-carboxamido)methyl)-4,5-dihydroisoxazol-5-carboxamido)-3-methylbutyl)boronic acid] | < 0.01 µM | > 0.25 µM |
| CC(C)C[C@H](NC(=O)C1(Cc2ccccc2)CC(CNC(=O)c2ccnc3c2ccn3C(C)C)=NO1)B(O)O (stereo partly drawn) [Example 211, ((1R)-1-(5-benzyl-3-((1-isopropyl-1H-pyrrolo[2,3-b]pyridin-4-carboxamido)methyl)-4,5-dihydroisoxazol-5-carboxamido)-3-methylbutyl)boronic acid] | < 0.01 µM | > 0.5 µM |
